In patent US20230233600A1, “IMPROVED VIRUCIDAL FORMULATIONS” (priority 2020, published 2023):
Like-named read-outs stand apart in the source and are kept apart here.

System: SARS-CoV-2
Assay type: cell-based
Details: for LRV (log reduction value), reduction of virus compared to the virus control / Virus Titer: solution at 90%
[1] = incubation 15 seconds at 37° C.
[2] = incubation 15 minutes at 37° C.

## CCO [Ethanol]
[1]
  LRV (log reduction value), reduction of virus compared to the virus control: 4.3
  Virus Titer: 0.67 Log10 CCID50 of virus per mL
Incubation 5 minutes at 37° C.
  LRV (log reduction value), reduction of virus compared to the virus control: >4.3
  Virus Titer: <0.67 Log10 CCID50 of virus per mL
[2]
  LRV (log reduction value), reduction of virus compared to the virus control: >4.3
  Virus Titer: <0.67 Log10 CCID50 of virus per mL
Positive control, contact time not given
  virus titer (baseline reached): 0.67 log10 CCID50/ml
